In paper PMC12019328, “Discovery of an ApoE4-targeted small-molecule SirT1 enhancer for the treatment of Alzheimer’s disease” (Scientific Reports, 2025):
“Also recorded” adds a separate entry of the source.

Tests used:
[1] = test system: SirT1 protein in N2a-E4 cells; experiment: SirT1 protein levels in N2a-E4 cells (AlphaLISA); assay type: cell-based, murine
Method: Relative SirT1 mRNA and protein enhancement by racemate DDL-214 and enantiomers DDL-218 and − 219 was determined in murine neuroblastoma cells stably transfected with ApoE4 (N2a-E4)[25]. All test compounds in DMSO were prepared at 2x the final concentration in DMEM supplemented with 10% fetal bovine serum (FBS) and 1% pen-strep (PS) and 50 µL of each loaded into individual wells of a 96-well plate. Previously cultured N2a-E4 were then trypsinized, harvested, centrifuged, and counted; then 50 µL of cell suspension adjusted to 400 cells/µL was added to each well. The plate was then incubated at 37 °C, 5% CO2 for 48 h. Cells were treated with DDL-214, DDL-218, or DDL-219 at 5 µM final then incubated for 24 h. After incubation, the cells were lysed with 50 µL of ice-cold lysis buffer (0.4% SDS, 3.5% Triton X-100, 0.02% sodium deoxycholate, 28 mM TRIS pH 8) complemented with 1X final Halt™ Protease and Phosphatase Inhibitor Cocktail (Thermo Fisher catalog # 78442), placed on ice for 10 min and at -80 °C, followed by 3 freeze/thaw cycles.
An AlphaLISA comprising streptavidin donor beads (Revvity catalog # 6760002 S), biotinylated anti-SirT1 N-terminal antibody (monoclonal 19A7AB4, Abcam catalog # ab110304), and acceptor beads (Revvity catalog # 6772001) conjugated to the anti-SirT1 C-terminal antibody (monoclonal 1F3, Abcam catalog # ab104833) was used to determine SirT1 protein levels. […] The plates were read using an Envision plate reader.
Figure S3B. […] Compound treatment was done at 5 and 50 µM. SirT1 levels were measured by AlphaLISA followed and normalized to protein […]
Brain tissue was homogenized in PBS (pH 7.4) (1: 3 weight(mg)/volume(µL)) and the protein concentration of was determined using the Micro BCA™ Protein Assay Kit (Thermo Fisher Scientific, Cat#23235). […]
The % of the unbound drug (fu,bound) was calculated using the following equation: fu,bound = [normalized peak area in buffer side / normalized peak area in brain side] x 100 Liver Microsome Stability [t1/2 (min)] […]

[2] = test system: SirT1 mRNA in Kelly cells; experiment: SirT1 mRNA in Kelly neuroblastoma cells; assay type: cell-based, human; settings: 5 µM, 24 h, vs DMSO control
Method: Human neuroblastoma ‘Kelly’ cells (genotype APOE3/APOE4) were plated in 96-well plates at 50K cells per well and were grown overnight in RPMI 1640 supplemented with 2 mM Glutamine, 10% FBS and 1% Pen-Strep. Cells were treated with 5 µM DDL-214, -218, or -219; or DMSO vehicle (n = 8 per compound). Twenty-four hours later, medium was removed, cells washed and lysed as described above for N2a-E4 cells.
Total RNA was isolated from cells or brain tissue (Qiagen RNEasy kit). Total RNA (0.5–1.0 µg) mRNA was then converted to cDNA (SuperScript™ III First-Strand Synthesis SuperMix kit; Thermo Fisher), and gene mRNA levels were measured using a gene-specific qRT-PCR Taqman assays (Thermo Fisher). Gene mRNA levels were normalized to GAPDH mRNA levels measured either in the same cDNA sample or in the same qPCR reaction using multiplexing of gene-of-interest/VIC and GAPDH/FAM, normalized by the delta-delta-Ct method.

[3] = Observation of mice behavior in the PK study; assay type: in vivo; settings: oral gavage 10 or 30 mg/Kg
Method: C57BL/6J mice were administered DDL-214, -218, or -219 (n = 3 per compound) by oral gavage at a dose of 30 mg/kg in a volume of 5 mL/Kg based on mouse weight. One hour later, mice were euthanized by pentobarbital over-anesthesia and trans-cardial collection of blood for isolation of plasma by centrifugation at 10,000 x g for 10 min at 4 °C. Brain tissue was collected for analysis, frozen on dry ice and stored at -80 °C before analysis.

CC(N)C(=O)OC(C)(C)Cc1ccncc1 (stereo not shown) [DDL-218]
SirT1 protein levels ([1]; N2a-E4 cells, 5 µM, 24 h, vs DMSO control): greatest increase in SirT1 protein | SirT1 mRNA [2]: greatest increase; also recorded: significantly increased SirT1 mRNA | changes in mice behavior indicative of drug-induced toxicity [3]: No notable changes in mice behavior

C#Cc1ccc(CC(C)(C)NC(=O)[C@H](C)N)cc1 [DDL-220]
SirT1 increase over vehicle ([1]; 50 uM in N2a-E4 cells): 30%
